Source: patent US6747049B2, “Oxazole derivatives” (Hoffmann-La Roche Inc., priority 2002, dated 2004)

Key:
PPARα = target: T1, PPARα (Homo sapiens, UniProt Q07869); assay: Luciferase transcriptional reporter gene assay, pFA-PPARα-LBD in BHK21 cells; assay type: cell-based; settings: Gal4-PPARα-LBD luciferase reporter, 24 hours incubation
T1 construct: expressed in transfected cells; host or cells: BHK21 (ATCC CCL10)
T1 sequence (Q07869 167-468 limits assumed): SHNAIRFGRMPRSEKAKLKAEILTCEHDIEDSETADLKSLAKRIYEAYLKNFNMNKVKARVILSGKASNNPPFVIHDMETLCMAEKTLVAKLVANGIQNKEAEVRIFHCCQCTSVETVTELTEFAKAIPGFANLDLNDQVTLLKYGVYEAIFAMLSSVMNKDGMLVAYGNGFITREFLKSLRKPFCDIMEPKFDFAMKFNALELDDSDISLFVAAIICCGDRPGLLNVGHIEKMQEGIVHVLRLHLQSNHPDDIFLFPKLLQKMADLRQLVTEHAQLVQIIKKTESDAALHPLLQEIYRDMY
Source text: Full-length cDNA clones for human PPARα and mouse PPARγ were obtained by RT-PCR from human adipose and mouse liver cRNA, respectively, cloned into plasmid vectors and verified by DNA sequencing. […] To accomplish this, the portions of the cloned sequences encoding the LBDs were amplified from the full-length clones by PCR and then subcloned into the plasmid vectors. Final clones were verified by DNA sequence analysis.
(§1) Luciferase Transcriptional Reporter Gene Assays
(§2) Baby hamster kidney cells (BHK21 ATCC CCL10) were grown in DMEM medium containing 10% FBS at 37° C. in a 95%[…]:5%CO2 atmosphere. Cells were seeded in 6 well plates at a density of 10^5 Cells/well and then batch-transfected with either the pFA-PPARγ-LBD or pFA-PPARα-LBD expression plasmids plus the pFR-luc reporter plasmid and an expression plasmid encoding the secretable form of alkaline phosphatase (SEAP) as a normalization control. […] Six hours following transfection, the cells were harvested by trypsinization and seeded in 96 well plates at a density of 10^4 cells/well. After 24 hours to allow attachment of cells, the medium was removed and replaced with 100 ul of phenol red-free medium containing the test substances or control ligands (final. 0.1% DMSO). Following incubation of the cells for 24 hours with substances, 50 ul of the supernatant was recovered and analyzed for SEAP activity (Roche Molecular Biochemicals). The remainder of the supernatant was discarded, 50 ul PBS was added per well followed by one volume of Luciferase Constant-Light Reagent (Roche Molecular Biochemicals) to lyse the cells and initiate the luciferase reaction. Luminescence for both SEAP and luciferase was measured in a Packard TopCount. Luciferase activity was normalized to the SEAP control and transcriptional activation in the presence of a test substance was expressed as fold-activation over cells incubated in the absence of the substance. EC50 values were calculated using the XLfit program (ID Business Solutions Ltd. UK).

PPARγ [1] = target: T2, PPARγ (Mus musculus, UniProt P37238); assay: Luciferase transcriptional reporter gene assay, pFA-PPARγ-LBD in BHK21 cells; assay type: cell-based; settings: Gal4-PPARγ-LBD luciferase reporter, 24 hours incubation
T2 construct: expressed in transfected cells; host or cells: BHK21 (ATCC CCL10)
T2 sequence (P37238 174-475 isoform P37238-2): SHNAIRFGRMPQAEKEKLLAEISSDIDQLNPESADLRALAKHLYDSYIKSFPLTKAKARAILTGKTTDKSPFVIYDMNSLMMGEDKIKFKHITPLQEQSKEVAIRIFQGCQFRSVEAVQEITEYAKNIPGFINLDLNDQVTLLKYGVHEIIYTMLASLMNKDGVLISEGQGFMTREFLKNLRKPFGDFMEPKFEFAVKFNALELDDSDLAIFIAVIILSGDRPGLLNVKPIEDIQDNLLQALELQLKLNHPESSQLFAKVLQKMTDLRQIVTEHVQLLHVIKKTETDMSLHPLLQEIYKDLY
Source text: (§3) Full-length cDNA clones for human PPARα and mouse PPARγ were obtained by RT-PCR from human adipose and mouse liver cRNA, respectively, cloned into plasmid vectors and verified by DNA sequencing. Bacterial and mammalian expression vectors were constructed to produce glutathione-s-transferase (GST) and Gal4 DNA binding domain proteins fused to the ligand binding domains (LBD) of PPARγ (aa 174 to 476) and PPARα (aa 167 to 469). To accomplish this, the portions of the cloned sequences encoding the LBDs were amplified from the full-length clones by PCR and then subcloned into the plasmid vectors. Final clones were verified by DNA sequence analysis.
as §1, §2

PPARγ [2] = target: T3, PPARγ (Mus musculus, UniProt P37238); assay: PPARγ radioligand binding assay (scintillation proximity, GST-PPARγ-LBD); settings: SPA beads
T3 construct: made in house; host or cells: E. coli BL21(pLysS)
T3 sequence (P37238 204-505): T2 sequence (P37238 174-475 isoform P37238-2)
Source text: Background information on the performed assays can be found in: Nichols J S et al. “Development of a scintillation proximity assay for peroxisome proliferator-activated receptor gamma ligand binding domain”, (1998) Anal. Biochem. 257:112-119.
as §3
Induction, expression, and purification of GST-LBD fusion proteins were performed in E. coli strain BL21(pLysS) cells by standard methods (Ref: Current Protocols in Molecular Biology, Wiley Press, edited by Ausubel et al.).
Radioligand Binding Assay
PPARγ receptor binding was assayed in TKE50 (50 mM Tris-HCl, pH 8, 50 mM KCl, 2 mM EDTA, 0.1 mg/ml fatty acid-free BSA and 10 mM DTT). For each 96 well reaction an 140 ng equivalent of GST-PPARγ-LBD fusion protein was bound to 10 ug SPA beads (PharmaciaAmersham) in a final volume of 50 ul by shaking. The resulting slurry was incubated for 1 h at RT and centrifuged for 2 min at 1300 g. The supernatant containing unbound protein was removed and the semidry pellet containing the receptor-coated beads was resolved in 50 ul of TKE. For radioligand binding e.g. 10000 dpm 2(S)-(2-benzoyl-phenylamino)-3-{4-[1,1-ditritio-2-(5-methyl-2-phenyl-oxazol-4-yl)-ethoxy]-phenyl}-propionic acid in 50 ul were added, the reaction incubated at RT for 1 h and scintillation proximity counting performed. All binding assays were performed in 96 well plates and the amount of bound ligand measured on a Packard TopCount using OptiPlates (Packard). Nonspecific binding was determined in the presence of 10^−4 M unlabelled compound. Dose response curves were done in triplicates within a range of concentration from 10^−10 M to 10^−4 M.

Row | Compound | EC50 (PPARα) [nM] | EC50 (PPARγ [1]) [nM] | IC50 (PPARγ [2]) [nM]
1 | CCCN(Cc1ccccc1C(=O)O)c1ccc(OCCc2nc(-c3ccccc3)oc2C)cc1 [Example 6, 2-[({4-[2-(5-methyl-2-phenyl-oxazol-4-yl)-ethoxy]-phenyl}-propyl-amino)-methyl]-benzoic acid] | 2700 | 1320 | 930
2 | Cc1oc(-c2ccccc2)nc1CCOc1ccc(N(Cc2ccccc2C(=O)O)c2ccc(F)cc2)cc1 [Example 12, 2-[((4-fluoro-phenyl)-{4-[2-(5-methyl-2-phenyl-oxazol-4-yl)-ethoxy]-phenyl}-amino)-methyl]-benzoic acid] | 2590 | 2320 | 1080
3 | Cc1oc(-c2ccccc2)nc1CCOc1ccc(N(Cc2c(F)cccc2C(=O)O)c2ccccc2)cc1 [Example 18, 3-fluoro-2-[({4-[2-(5-methyl-2-phenyl-oxazol-4-yl)-ethoxy]-phenyl}-phenyl-amino)-methyl]-benzoic acid] | 10000 | 1980 | 240
4 | COc1cccc(CN(c2ccccc2)c2ccc(OCCc3nc(-c4ccccc4)oc3C)cc2)c1C(=O)O [Example 26, 2-methoxy-6-[({4-[2-(5-methyl-2-phenyl-oxazol-4-yl)-ethoxy]-phenyl}-phenyl-amino)-methyl]-benzoic acid] | 2050 | 1410 | 980
